According to EP0808833B1, “Vitamin D3 analogs” (F. HOFFMANN-LA ROCHE AG, priority 1996, dated 1997):
pEC50, pIC50: −log10 of the molar value. Where two headings read alike, the source gives them in different places. Marks after values point to notes of the source that are not given here.

How the values were obtained:
[1] = Calcium tolerance test in mice; type: in vivo; settings: highest tolerated dose = dose resulting in zero weight gain, daily subcutaneous administration for 4 consecutive days; for MTD: mouse, in vivo, sc, read-out: HTD
Description: Calcium tolerance test in mice
Profound changes in calcium homeostasis strongly affect the weight development of mice. Mice (25-30 g body weight) received daily subcutaneous administrations of the compound for 4 consecutive days. Body weight was registered just before and at the end of a […] treatment period. The "highest tolerated dose" (HTD) is the dose which results in zero weight gain during this treatment period.

HL-60 cells = experiment: HL-60 cell differentiation (NBT reduction); type: cell-based; settings: Homo sapiens, HL-60, 72 h, concentration leading to 50% of maximal differentiation achieved with 100-1000 nM calcitriol, 3 days, read-out: ED50 (the source's name)
[2] = test system: T47-D breast carcinoma cells; experiment: Antiproliferative activity in T47-D breast carcinoma cells (MTT); type: cell-based; settings: Homo sapiens, T47D, 72 h
HaCaT cells = experiment: Inhibition of keratinocyte proliferation (3H-thymidine uptake, HaCaT); type: cell-based; settings: Homo sapiens, 3H-thymidine incorporation after 6 days of culture in presence of the test compound
sebaceous cells = experiment: Inhibition of human sebocyte proliferation in vitro; type: cell-based; settings: amount of compound necessary to inhibit proliferation of sebaceous cells by 50% as compared to a vehicle-treated culture, tested at 10^-6, 10^-7 and 10^-8 M, read-out: ED50 (the source's name)
Protocol: Inhibition of Human Sebocyte Proliferation In Vitro
The cells were cultured in Iscove's medium containing 10% fetal calf serum and 4 µg/ml dexamethasone on a layer of growth-arrested 3T3 mouse fibroblasts. Cells were plated in medium without the test compound and then given test compound in fresh medium 24-48 hours after the initial plating. The cultures were given fresh medium, containing the test compound, every 48 hours. On the day of harvesting, the cultures were rinsed with 0.03% EDTA (ethylenediamine tetroacetic acid) in PBS (phosphate-buffered saline), to remove only the 3T3 fibroblasts, followed by incubation in 0.05% trypsin/0.03% EDTA. The cells were suspended, mixed vigorously to prepare a single cell suspension and counted in a hemocytometer.
Stock solutions of compounds were made up as 10^-2 M solutions in degassed 100% ethanol and stored at -20°C in the dark. During experimental use, the solutions, which have been aliquoted, were brought to room temperature and used by diluting directly into complete medium to the appropriate concentration.

[3] = test system: UVB-Induced Dermal Damage; experiment: Repair of UVB-induced dermal damage in the hairless mouse; type: in vivo, Hairless mice; settings: treated three times per week after UVB irradiation
Protocol: Repair of UVB-Induced Dermal Damage in the Hairless Mouse by Compounds of Formula I Hairless mice (female, HRS/J strain, Jackson Labs, 5-7 weeks old at the start of the experiments) were housed in yellow light and irradiated three times per week with a bank of 8 Westinghouse Sunlamps (FS72T12 HO, peak irradiance at 313 nm) placed about 20 cm above the animals. UVB output was measured on an International Light Research Radiometer, model IL 1700, using a SEE240 detector. With this setup, the lamp output was approximately 3.5 mW/cm^2 and the time of exposure for 0.06 J/cm^2 was about 17 seconds; 1 MED is approximately 0.03 J/cm^2. The precise dose was delivered by a IL […] Phototherapy Exposure Control. Daily doses were 0.03 J/cm^2 for two weeks, 0.06 J/cm^2 for two weeks and 0.08 J/cm^2 thereafter, until a total dose of approximately 4 J/cm^2 was accumulated. To effect repair of the dermal damage, the UVB irradiation was discontinued and the animals were divided into groups of approximately eight and treated three times per week with various concentrations of the vitamin D analogs dissolved in ethanol. All dosing was done under yellow light. […] In these studies, since the width of the zone varies considerably, the area of the zone on a standard length of histological section is measured by image analysis. Compounds are tested at three doses and an approximate ED50 calculated.

| Molecule | HTD [1] | pEC50 (sebaceous cells) | other results |
| --- | --- | --- | --- |
| C=C1/C(=C\C=C2/CCC[C@]3(C)C([C@@H](C)C/C=C/C(O)(C(F)(F)F)C(F)(F)F)=CC[C@@H]23)C[C@@H](O)C[C@@H]1O [1,25-Dihydroxy-16,23E-diene-26,27-hexafluoro-20-epi-cholecalciferol] | – | – | MTD [1]: 2.5 µg/kg; pEC50 (HL-60 cells): 9.43; pIC50 [2]: 8.00; pIC50 (HaCaT cells): 9.15; pEC50 (sebaceous cells; Homo sapiens): > 8.00; Repair Zone ([3]; Dose 0.1 µg, P < 0.001 vs vehicle control): 0.0282±0.0092*** mm^2; Repair Zone ([3]; Dose 0.5 µg, P < 0.05 vs vehicle control): 0.0102±0.0067* mm^2 |
| C=C1C(=CC=C2CCCC3(C)C(C(C)CCCC(C)(C)O)=CCC23)CC(O)CC1O (stereo not drawn) [1,25-Dihydroxy-16-ene-20-epi-cholecalciferol] | 30 µg/kg | > 9.00 | – |
| C=C1C(=CC=C2CCCC3(C)C(C(C)C/C=C\C(O)(C(F)(F)F)C(F)(F)F)=CCC23)CC(O)CC1F (stereo not drawn) [1α-Fluoro-25-hydroxy-16,23Z-diene-26,27-hexafluoro-20-epi-cholecalciferol] | 8.0 µg/kg | – | – |
| C=C1C(=CC=C2CCCC3(C)C(C(C)CC#CC(C)(C)O)=CCC23)CC(O)CC1O (stereo not drawn) [1,25-Dihydroxy-16-ene-23-yne-20-epi-cholecalciferol] | 100 µg/kg | 7.30 | – |
| C=C1C(=CC=C2CCCC3(C)C(C(C)C/C=C\C(O)(C(F)(F)F)C(F)(F)F)=CCC23)CC(O)CC1O (stereo not drawn) [1,25-Dihydroxy-16,23Z-diene-26,27-hexafluoro-20-epi-cholecalciferol] | 2.5 µg/kg | – | – |
| C=C1/C(=C\C=C2/CCC[C@]3(C)C([C@@H](C)CC#CC(O)(C(F)(F)F)C(F)(F)F)=CC[C@@H]23)C[C@@H](O)C[C@@H]1O [1,25-Dihydroxy-16-ene-23-yne-26,27-hexafluoro-20-epi-cholecalciferol] | 6.0 µg/kg | > 8.00 | – |
| 1,25-Dihydroxy-16,23Z-diene-26,27-hexafluoro-20-epi-19-norcholecalciferol | 3.0 µg/kg | – | – |
| C=C1/C(=C\C=C2/CCC[C@]3(C)[C@@H]([C@H](C)CCCC(C)(C)O)CC[C@@H]23)C[C@@H](O)C[C@@H]1O [1,25-Dihydroxy-cholecalciferol, reference compound] | – | – | MTD [1]: 0.5 µg/kg |
